Laboratory results: PMC12683216, “Using High‐Throughput Screening to Identify Crosslinking Peptides That Control Cell‐Mediated Matrix Degradation” (Advanced Healthcare Materials, 2025)
Where a SMILES comes first, the peptide text is derived from it. [ ]: non-standard residue; d: D form. βAla = NCCC(=O)O

Assay: Peptide stability in fresh cell culture media (Blank)
Type: in vitro ADME
Conditions: no cell contact, 24 h, LC-MS
Experimental: To verify that MMP‐14 can degrade the KLVAD‐LM and PanMMP peptides, recombinant MMP‐14 was added to the different peptides, both in PBS and in the Cell and Media culture conditions (Figure 7 ). Peptides were incubated under three conditions: in fresh cell culture media (“Blank”), in media with cells present (“Cells”), and in cell‐conditioned media (“Media”). This was done for both hMSCs and hUVECs, and was also done with and without the addition of exogenous MMP.
The extent of peptide degradation was quantified for samples both with and without the addition of exogenous MMP‐14. […] Error bars indicate ± standard deviation, N = 3 with technical triplicates.
hUVECs (75000 per well) or hMSCs (36000 per well) were seeded into a 48 well plate, and 500 µL media was added to the wells. […] The peptide libraries were dissolved at a stock solution of 10 mM total peptide content. […]
For all degradation studies using soluble peptides, a non‐proteolytically degradable NH2‐βFβAβAβAβAβAβA‐amide (βFβA6) peptide, where βF is β‐phenylalanine and βA is β‐alanine, was added at a 50 µM concentration and used as an internal standard. Peptide degradation ratios were measured by LC‐MS and analyzed by Xcalibur. The relative concentrations of the peptide were calculated by the ratio of the peak area of the peptide and the peak area of βFβA6.

degradation in the Blank condition without added MMP‐14 (hydrolytic stability): negligible degradation
Structure (SMILES): CC[C@H](C)[C@H](NC(=O)CNC(=O)[C@H](CCC(N)=O)NC(=O)[C@@H]1CCCN1C(=O)CNC(=O)CCNC(C)=O)C(=O)N[C@@H](Cc1c[nH]c2ccccc12)C(=O)NCC(=O)N[C@@H](CCC(N)=O)C(=O)NCCC(N)=O [PanMMP, reference compound] (Ac-[βAla]GPQGIWGQ[βAla]-NH2)
